Assay results: US20060247223A1, “Non-imidazole alkylamines as histamine H3- receptor ligands and their therapeutic applications” (priority 1998, published 2006)
Counter-ions that a name gives are not always drawn.

Row | Compound | melting point
1 | Clc1ccc(OCCCCCN2CCCC2)cc1 (as salt: oxalate) [Example 19, 1-[5-(4-chlorophenoxy)-pentyl]-pyrrolidine] | 139 to 141 °C
2 | CC(O)c1ccc(OCCCCCN2CCCC2)cc1 (stereo not shown) (as salt: oxalate) [Example 50, 1-{5-[4-(1-hydroxyethyl)-phenoxy]-pentyl}-pyrrolidine] | 102 to 104 °C
3 | C1=CCN(CCCCCOc2ccccc2)CC1 (as salt: oxalate) [Example 17, 1-(5-phenoxypentyl)-1,2,3,6-tetrahydropyridine] | 177 to 179 °C
4 | N#Cc1ccc(OCCCCCN2CCCCC2)cc1 (as salt: oxalate) [Example 52, 1-[5-(4-cyanophenoxy)-pentyl]-piperidine] | 115 to 116 °C
5 | CC1CCN(CCCCCOc2ccccc2)CC1 (as salt: oxalate) [Example 9, 1-(5-phenoxypentyl)-4-methyl-piperidine] | 151 to 152 °C
6 | CCC(=NOC)c1ccc(OCCCN2CCCCC2C)cc1.Cl (stereo not shown) | 185 to 187 °C
7 | c1cc2c(cc1OCCCCCN1CCCC1)CCCC2 (as salt: oxalate) [Example 27, 1-{5-[2-(5,6,7,8-tetrahydronaphthyl)-oxy]-pentyl}-pyrrolidine] | 131 to 132 °C
8 | c1ccc(OCCCCCN2CCCCCC2)cc1 (as salt: oxalate) [Example 5, N-(5-phenoxypentyl)-hexamethyleneimine] | 132 to 134 °C
9 | CC1CCCN(CCCCCOc2ccccc2)C1 (stereo not shown) [Example 10, 1-(5-phenoxypentyl)-3-methyl-piperidine] | 140 to 141 °C
10 | CCN(CC)CCCOc1ccc(C(C)=O)cc1 (as salt: oxalate) [Example 46, N-[3-(4-acetylphenoxy)-propyl]-diethylamine] | 108 to 110 °C
11 | CC1CCCN(CCCOc2ccc(C#N)cc2)C1.Cl (stereo not shown) | 171 to 173 °C
12 | CCN(CC)CCCOc1ccc([N+](=O)[O-])cc1 (as salt: oxalate) [Example 42, N-[3-(4-nitrophenoxy)-propyl]-diethylamine] | 160 to 161 °C
13 | CCN(CC)CCCCCOc1ccc(C#N)cc1 (as salt: oxalate) [Example 51, 1-[5-(4-cyanophenoxy)-pentyl]-diethylamine] | 120 to 122 °C
14 | c1ccc(OCCCCCN2CCCC2)cc1 (as salt: oxalate) [Example 2, 1-(5-phenoxypentyl)-pyrrolidine] | 153 to 155 °C
15 | O=C(Cc1ccccc1)c1ccc(OCCCCCN2CCCC2)cc1 (as salt: oxalate) [Example 45, 1-{5-[4-(phenylacetyl)-phenoxy]-pentyl}pyrrolidine] | 177 to 178 °C
16 | CC1CCCCN1CCCCCOc1ccccc1 (stereo not shown) (as salt: oxalate) [Example 7, 1-(5-phenoxypentyl)-2-methyl-piperidine] | 80 to 83 °C
17 | COc1ccc(OCCCCCN2CCCC2)cc1 (as salt: oxalate) [Example 20, 1-[5-(4-methoxyphenoxy)-pentyl]-pyrrolidine] | 115 to 116 °C
18 | c1ccc(SCCCCCN2CCCC2)cc1 (as salt: oxalate) [Example 33, 1-(5-phenylthiopentyl)-pyrrolidine] | 150 to 152 °C
19 | N#Cc1ccc(OCCCCCN2CCCC2)cc1 (as salt: oxalate) [Example 22, 1-[5-(4-cyanophenoxy)-pentyl]-pyrrolidine] | 129 to 130 °C
20 | O=C(Nc1ccc(OCCCCCN2CCCC2)cc1)c1ccccc1 (as salt: oxalate) [Example 49, 1-[5-(4-N-benzamidophenoxy)-pentyl]-pyrrolidine] | 176 to 178 °C
21 | C[C@H]1C[C@H](C)CN(CCCCCOc2ccccc2)C1 (stereo in doubt) (as salt: oxalate) [Example 12, 1-(5-phenoxypentyl)-3,5-trans-dimethyl-piperidine] | 154 to 155 °C
22 | CC1CCCN(CCCCCOc2ccc([N+](=O)[O-])cc2)C1 (stereo not shown) (as salt: oxalate) [Example 38, 1-[5-(4-nitrophenoxy)-pentyl]-3-methyl-piperidine] | 148 to 149 °C
23 | c1ccc(OCCCCN2CCCC2)cc1 (as salt: oxalate) [Example 31, 1-(4-phenoxybutyl)-pyrrolidine] | 143 to 144 °C
24 | Nc1ccc(OCCCCCN2CCCC2)cc1 (as salt: oxalate) [Example 40, 1-[5-(4-aminophenoxy)-pentyl]-pyrrolidine] | 120 to 122 °C
25 | CCOC(=O)C1CCCN(CCCCCOc2ccccc2)C1 (stereo not shown) (as salt: oxalate) [Example 16, 3-carboethoxy-1-(5-phenoxypentyl)-piperidine] | 117 to 118 °C
26 | CCCC1CCN(CCCCCOc2ccccc2)CC1 (as salt: oxalate) [Example 8, 1-(5-phenoxypentyl)-4-propyl-piperidine] | 165 to 166 °C
27 | Fc1ccc(OCCCCCN2CCCC2)cc1 (as salt: oxalate) [Example 37, 1-[5-(4-fluorophenoxy)-pentyl]-pyrrolidine] | 149 to 150 °C
28 | O=C(c1ccccc1)c1ccc(OCCCCCN2CCCC2)cc1 (as salt: oxalate) [Example 44, 1-[5-(4-benzoylphenoxy)-pentyl]-pyrrolidine] | 141 to 142 °C
29 | CCN(CC)CCCOc1ccc(C#N)cc1 (as salt: oxalate) [Example 43, N-[3-(4-cyanophenoxy)-propyl]-diethylamine] | 148 to 150 °C
30 | N#Cc1ccc(OCCCN2CCCCCC2)cc1 (as salt: oxalate) [Example 60, N-[3-(4-cyanophenoxy)-propyl]-hexamethyleneimine] | 124 to 125 °C

The remaining lines, values ahead:

Row | melting point | Compound
31 | 157 to 160 °C | CCC(=NO)c1ccc(OCCCN2CCC(C)CC2)cc1 (as salt: oxalate) [Example 107]
32 | 119 to 121 °C | CC1CCN(CCCOc2ccc([N+](=O)[O-])cc2)CC1 (as salt: oxalate) [Example 86, 1-[3-(4-nitrophenoxy)propyl]4-methylpiperidine]
33 | 99 to 100 °C | CCN(CC)CCCOc1ccc(/C(C)=N/O)cc1 (as salt: oxalate) [Example 64, 4-(3-diethylaminopropoxy)-acetophenone-oxime]
34 | 131 to 134 °C | CC(C)c1ccc(OCCCN2CCCCC2)cc1 (as salt: oxalate) [Example 111]
35 | 143 to 145 °C | O=C(c1ccc(OCCCN2CCCCC2)cc1)C1CCCC1 (as salt: oxalate) [Example 90, 1-[3-(4-cyclopentylcarbonylphenoxy)propyl]piperidine]
36 | 163 to 165 °C | CCC(=O)c1ccc(OCCCN2CCC(C)CC2)cc1 (as salt: oxalate) [Example 94, 1-[3-(4-propionylphenoxy)propyl]-4-methylpiperidine]
37 | 175 to 177 °C | Brc1ccc(OCCCN2CCCCC2)cc1 (as salt: oxalate) [Example 108, 1-[3-(4-bromophenoxy)propyl]piperidine]
38 | 127 to 128 °C | CCCN(CCC)CCCOc1ccc(C#N)cc1 (as salt: oxalate) [Example 62, N-[3-(4-cyanophenoxy)-propyl]-dipropylamine]
39 | 163 to 165 °C | N#Cc1ccc(OCCCN2CCCC2)cc1 (as salt: oxalate) [Example 58, 1-[3-(4-cyanophenoxy)-propyl]-pyrrolidine]
40 | 135 to 136 °C | CCC(=O)c1ccc(OCCCN2CCCC(C)C2)cc1 (stereo not shown) (as salt: oxalate) [Example 88, 1-[3-(4-propionylphenoxy)propyl]-3-methylpiperidine]
41 | 80 to 82 °C | O=C(c1ccc(OCCCN2CCCCC2)cc1)C1CCC1 (as salt: oxalate) [Example 89, 1-[3-(4-cyclobutylcarbonylphenoxy)propyl]piperidine]
42 | 174 to 175 °C | CC(=O)c1ccc(OCCCN2C[C@H](C)C[C@H](C)C2)cc1 (as salt: oxalate) [Example 70, 1-[3-(4-acetylphenoxy)-propyl]-3,5-cis-dimethyl-piperidine]
43 | 130 to 132 °C | C[C@@H]1C[C@H](C)CN(CCCOc2ccc(C(=O)C3CC3)cc2)C1 (as salt: oxalate) [Example 102, 1-[3-(4-cyclopropylcarbonylphenoxy)propyl]-cis-3,5-dimethylpiperidine]
44 | 160 to 161 °C | CC(=O)c1ccc(OCCCN2CCC(C)CC2)cc1 (as salt: oxalate) [Example 68, 1-[3-(4-acetylphenoxy)-propyl]-4-methyl-piperidine]
45 | 179 to 181 °C | CCC(=NOC)c1ccc(OCCCN2CCC(C)CC2)cc1 (as salt: oxalate) [Example 99, 1-[3-(4-propionylphenoxy)propyl]-4-methylpiperidine methoxime]
46 | 156 to 158 °C | COC(=O)c1ccc(OCCCN2CCCCC2)cc1 (as salt: oxalate) [Example 103, 1-[3-(4-carbomethoxyphenoxy)propyl]piperidine]
47 | 152 to 153 °C | O=Cc1ccc(OCCCN2CCCCC2)cc1 (as salt: oxalate) [Example 71, 1-[3-(4-formylphenoxy)-propyl]-piperidine]
48 | 148 to 151 °C | CCc1ccc(OCCCN2CCCCC2)cc1 (as salt: oxalate) [Example 114, 1-[3-(4-ethylphenoxy)propyl]piperidine]
49 | 121 to 124 °C | CCCc1ccc(OCCCN2CCCCC2)cc1 (as salt: oxalate) [Example 113, 1-[3-(4-propylphenoxy)propyl]piperidine]
50 | 143 to 144 °C | CC(=O)c1ccc(OCCCN2CCCC(C)C2)cc1 (stereo not shown) (as salt: oxalate) [Example 66, 1-[3-(4-acetylphenoxy)-propyl]-3-methyl-piperidine]
51 | 171 to 172 °C | CC(=O)c1ccc(OCCCN2C[C@@H](C)C[C@H](C)C2)cc1 (stereo in doubt) (as salt: oxalate) [Example 67, 1-[3-(4-acetylphenoxy)-propyl]-3,5-trans-dimethyl-piperidine]
52 | 158 to 159 °C | CC[C@@H]1CC[C@H](C)N(CCCOc2ccc(C#N)cc2)C1 (relative stereo) (as salt: oxalate) [Example 91, 1-[3-(4-cyanophenoxy)propyl]-cis-2-methyl-5-ethylpiperidine]
